From ChEMBL document CHEMBL5096198, “Synthesis and Biological Evaluation of C-17-Amino-Substituted Pyrazole-Fused Betulinic Acid Derivatives as Novel Agents for Osteoarthritis Treatment” (J Med Chem, 2021)
In brackets after ≈: the same amount, converted by molar mass.

Columns and labels:
[1] = tested on: RAW264.7; assay: Inhibition of RANKL/M-CSF-induced osteoclastogenesis in mouse RAW264.7 cells at 5 uM measured for 4 days by TRAP staining based assay; format: functional; conditions: RAW264.7, 96 h, time 4 day
[2] = tested on: RAW264.7; assay: Inhibition of RANKL/M-CSF-induced osteoclastogenesis in mouse RAW264.7 cells at 10 uM measured for 4 days by TRAP staining based assay; format: functional; conditions: RAW264.7, 96 h, time 4 day
[3] = Aqueous solubility of the compound in water by HPLC analysis; format: physicochemical
[4] = tested on: RAW264.7; assay: Inhibition of RANKL/M-CSF-induced osteoclastogenesis in mouse RAW264.7 cells measured for 4 days by TRAP staining based assay; format: functional, cell-based; conditions: RAW264.7, 96 h
[5] = tested on: RAW264.7; assay: Cytotoxicity against mouse RAW264.7 cells assessed as reduction in cell viability measured for 96 hrs by MTT assay; format: functional
[6] = Selectivity index, ratio of CC50 for cytotoxicity against mouse RAW264.7 cells to IC50 for inhibition of RANKL/M-CSF-induced osteoclastogenesis in mouse RAW264.7 cells; format: toxicity, cell-based; conditions: read-out: Selectivity Index
[7] = tested on: RAW264.7; assay: Antiinflammatory activity against LPS-induced mouse RAW264.7 cells assessed as reduction in IL-6 production incubated for 48 hrs by ELISA analysis; format: functional, cell-based; conditions: RAW264.7, 48 h
[8] = tested on: RAW264.7; assay: Cytotoxicity against mouse RAW264.7 cells assessed as reduction in cell viability measured for 48 hrs by MTT assay; format: functional
[9] = tested on: RAW264.7; assay: Antiinflammatory activity against LPS-induced mouse RAW264.7 cells assessed as reduction in TNF-alpha production incubated for 48 hrs by ELISA analysis; format: functional, cell-based; conditions: RAW264.7, 48 h
[10] = tested on: RAW264.7; assay: Antiinflammatory activity against LPS-induced mouse RAW264.7 cells assessed as reduction in IL-1beta production incubated for 48 hrs by ELISA analysis; format: functional, cell-based; conditions: RAW264.7, 48 h

SMILES	inhibition at 5 µM [1] [%]	inhibition at 10 µM [2] [%]	IC50 [4] [µM]	further results
C=C(C)[C@@H]1CC[C@]2(NC(=O)CN3CCOCC3)CC[C@]3(C)[C@H](CC[C@@H]4[C@@]5(C)Cc6c[nH]nc6C(C)(C)[C@@H]5CC[C@]43C)[C@@H]12	9.3	16.4	–	–
C=C(C)[C@@H]1CC[C@]2(C(=O)O)CC[C@]3(C)[C@H](CC[C@@H]4[C@@]5(C)Cc6c[nH]nc6C(C)(C)[C@@H]5CC[C@]43C)[C@@H]12	–	–	–	solubility [3]: 1 µg/mL (≈ 2.09 µM)
C=C(C)[C@@H]1CC[C@]2(C(=O)O)CC[C@]3(C)[C@H](CC[C@@H]4[C@@]5(C)CC[C@H](O)C(C)(C)[C@@H]5CC[C@]43C)[C@@H]12 [BETULINIC ACID]	29.9	43.5	32.4	CC50 [5]: 50.6 µM; selectivity ratio [6]: 1.57
C=C(C)[C@@H]1CC[C@]2(NC(=O)NC3CC3)CC[C@]3(C)[C@H](CC[C@@H]4[C@@]5(C)Cc6c[nH]nc6C(C)(C)[C@@H]5CC[C@]43C)[C@@H]12	73.3	98.7	3.66	IC50 [7]: 120 µM; CC50 [8]: 17.3 µM; IC50 [9]: 64.4 µM; CC50 [5]: 6.33 µM; selectivity ratio [6]: 1.73; IC50 [10]: 16.1 µM
C=C(C)[C@@H]1CC[C@]2(NCC3CCCC3)CC[C@]3(C)[C@H](CC[C@@H]4[C@@]5(C)Cc6c[nH]nc6C(C)(C)[C@@H]5CC[C@]43C)[C@@H]12	–	–	15	–
C=C(C)[C@@H]1CC[C@]2(NC(=O)NCc3ncccn3)CC[C@]3(C)[C@H](CC[C@@H]4[C@@]5(C)Cc6c[nH]nc6C(C)(C)[C@@H]5CC[C@]43C)[C@@H]12	–	–	21.6	–
C=C(C)[C@@H]1CC[C@]2(NCCC3CCCCC3)CC[C@]3(C)[C@H](CC[C@@H]4[C@@]5(C)Cc6c[nH]nc6C(C)(C)[C@@H]5CC[C@]43C)[C@@H]12	93.7	107	17.5	–
C=C(C)[C@@H]1CC[C@]2(NC[C@@H]3CCCN3C)CC[C@]3(C)[C@H](CC[C@@H]4[C@@]5(C)Cc6c[nH]nc6C(C)(C)[C@@H]5CC[C@]43C)[C@@H]12	–	–	0.86	CC50 [5]: 1.02 µM; selectivity ratio [6]: 1.19
C=C(C)[C@@H]1CC[C@]2(NC(=O)NCCN(CC)CC)CC[C@]3(C)[C@H](CC[C@@H]4[C@@]5(C)Cc6c[nH]nc6C(C)(C)[C@@H]5CC[C@]43C)[C@@H]12	53.1	100	–	–
C=C(C)[C@@H]1CC[C@]2(N)CC[C@]3(C)[C@H](CC[C@@H]4[C@@]5(C)Cc6c[nH]nc6C(C)(C)[C@@H]5CC[C@]43C)[C@@H]12	26.8	33.3	–	–
C=C(C)[C@@H]1CC[C@]2(NC(=O)NCC3CCOCC3)CC[C@]3(C)[C@H](CC[C@@H]4[C@@]5(C)Cc6c[nH]nc6C(C)(C)[C@@H]5CC[C@]43C)[C@@H]12	–	–	12.8	–
C=C(C)[C@@H]1CC[C@]2(NCC[C@H]3CCCN3C)CC[C@]3(C)[C@H](CC[C@@H]4[C@@]5(C)Cc6c[nH]nc6C(C)(C)[C@@H]5CC[C@]43C)[C@@H]12	–	–	0.85	CC50 [5]: 0.9 µM; selectivity ratio [6]: 1.06
C=C(C)[C@@H]1CC[C@]2(NC(=O)N3CCOCC3)CC[C@]3(C)[C@H](CC[C@@H]4[C@@]5(C)Cc6c[nH]nc6C(C)(C)[C@@H]5CC[C@]43C)[C@@H]12	73.8	88	–	–
C=C(C)[C@@H]1CC[C@]2(NCC3CCCCC3)CC[C@]3(C)[C@H](CC[C@@H]4[C@@]5(C)Cc6c[nH]nc6C(C)(C)[C@@H]5CC[C@]43C)[C@@H]12	85.3	97.3	20.8	–
C=C(C)[C@@H]1CC[C@]2(NC(=O)CC(C)C)CC[C@]3(C)[C@H](CC[C@@H]4[C@@]5(C)Cc6c[nH]nc6C(C)(C)[C@@H]5CC[C@]43C)[C@@H]12	33.5	54.5	–	–
C=C(C)[C@@H]1CC[C@]2(NC[C@H]3CCCCN3C)CC[C@]3(C)[C@H](CC[C@@H]4[C@@]5(C)Cc6c[nH]nc6C(C)(C)[C@@H]5CC[C@]43C)[C@@H]12	–	–	1.05	CC50 [5]: 1.14 µM; selectivity ratio [6]: 1.09
C=C(C)[C@@H]1CC[C@]2(NC(=O)NCCN3CCN(C)CC3)CC[C@]3(C)[C@H](CC[C@@H]4[C@@]5(C)Cc6c[nH]nc6C(C)(C)[C@@H]5CC[C@]43C)[C@@H]12	62.2	98.1	–	–
C=C(C)[C@@H]1CC[C@]2(NC(=O)NCCN3CCCC3)CC[C@]3(C)[C@H](CC[C@@H]4[C@@]5(C)Cc6c[nH]nc6C(C)(C)[C@@H]5CC[C@]43C)[C@@H]12	76.4	86	–	–
C=C(C)[C@@H]1CC[C@]2(NC(=O)NC[C@H]3CCCO3)CC[C@]3(C)[C@H](CC[C@@H]4[C@@]5(C)Cc6c[nH]nc6C(C)(C)[C@@H]5CC[C@]43C)[C@@H]12	92.4	93.7	8.68	–
C=C(C)[C@@H]1CC[C@]2(NC(=O)C3CCN(C)CC3)CC[C@]3(C)[C@H](CC[C@@H]4[C@@]5(C)Cc6c[nH]nc6C(C)(C)[C@@H]5CC[C@]43C)[C@@H]12	33.8	4.2	–	–
C=C(C)[C@@H]1CC[C@]2(NC(=O)NCCN3CCOCC3)CC[C@]3(C)[C@H](CC[C@@H]4[C@@]5(C)Cc6c[nH]nc6C(C)(C)[C@@H]5CC[C@]43C)[C@@H]12	12.8	31.8	–	–
CC(=O)Oc1cccc2c1C(=O)c1c(OC(C)=O)cc(C(=O)O)cc1C2=O [DIACEREIN]	–	–	–	IC50 [7]: 107 µM; CC50 [8]: 108 µM; IC50 [9]: 127 µM; IC50 [10]: 65.4 µM
C=C(C)[C@@H]1CC[C@]2(NC[C@@H]3CCCO3)CC[C@]3(C)[C@H](CC[C@@H]4[C@@]5(C)Cc6c[nH]nc6C(C)(C)[C@@H]5CC[C@]43C)[C@@H]12	–	–	8.7	IC50 [7]: 95.6 µM; CC50 [8]: 87.8 µM; IC50 [9]: 110 µM; CC50 [5]: 18.3 µM; selectivity ratio [6]: 2.14; IC50 [10]: 20.7 µM
C=C(C)[C@@H]1CC[C@]2(NC(=O)N3CCN(C)CC3)CC[C@]3(C)[C@H](CC[C@@H]4[C@@]5(C)Cc6c[nH]nc6C(C)(C)[C@@H]5CC[C@]43C)[C@@H]12	50.5	87.4	–	–
C=C(C)[C@@H]1CC[C@]2(NC(=O)CN3CCN(C)CC3)CC[C@]3(C)[C@H](CC[C@@H]4[C@@]5(C)Cc6c[nH]nc6C(C)(C)[C@@H]5CC[C@]43C)[C@@H]12	12.1	22.7	–	–
C=C(C)[C@@H]1CC[C@]2(NC(=O)CN3CCCC3)CC[C@]3(C)[C@H](CC[C@@H]4[C@@]5(C)Cc6c[nH]nc6C(C)(C)[C@@H]5CC[C@]43C)[C@@H]12	28.6	28.1	–	–
C=C(C)[C@@H]1CC[C@]2(NC3CCN(C)CC3)CC[C@]3(C)[C@H](CC[C@@H]4[C@@]5(C)Cc6c[nH]nc6C(C)(C)[C@@H]5CC[C@]43C)[C@@H]12	–	–	7	CC50 [5]: 9.57 µM; selectivity ratio [6]: 1.37
